# Reference: patent publication US7541352B2, “Compounds for the treatment of hepatitis C” (Bristol-Myers Squibb Company, priority 2007, dated 2009)
# Read-outs that look alike come from different tables or passages of the source.
# Legend:
# [1] = molecular target: T1, HCV NS5B RdRp genotype 1b (Hepatitis C virus genotype 1b, UniProt Q9WMX2); assay: Modified HCV NS5B RdRp enzyme assay (preincubation protocol); type: biochemical; settings: HCV NS5B RdRp; determined using the preincubation protocol; read-out: IC50
# T1 construct: The protein was expressed with an 18 amino acid C-terminal truncation to enhance the solubility; made in house; host or cells: E. coli BL21(DE3), pET21a
# Experimental: HCV NS5B RdRp cloning, expression, and purification. The cDNA encoding the NS5B protein of HCV, genotype 1b, was cloned into the pET21a expression vector. The protein was expressed with an 18 amino acid C-terminal truncation to enhance the solubility. The E. coli competent cell line BL21(DE3) was used for expression of the protein. Cultures were grown at 37° C. for ˜4 hours until the cultures reached an optical density of 2.0 at 600 nm. The cultures were cooled to 20° C. and induced with 1 mM IPTG. Fresh ampicillin was added to a final concentration of 50 μg/ml and the cells were grown overnight at 20° C.
# Cell pellets (3 L) were lysed for purification to yield 15-24 mgs of purified NS5B. The lysis buffer consisted of 20 mM Tris-HCl, pH 7.4, 500 mM NaCl, 0.5% triton X-100, 1 mM DTT, 1 mM EDTA, 20% glycerol, 0.5 mg/ml lysozyme, 10 mM MgCl2, 15 ug/ml deoxyribonuclease I, and Complete TM protease inhibitor tablets (Roche). After addition of the lysis buffer, frozen cell pellets were resuspended using a tissue homogenizer. To reduce the viscosity of the sample, aliquots of the lysate were sonicated on ice using a microtip attached to a Branson sonicator. The sonicated lysate was centrifuged at 100,000×g for 1 hr at 4° C. and filtered through a 0.2 μm filter unit (Corning).
# The protein was purified using two sequential chromatography steps: Heparin sepharose CL-6B and polyu sepharose 4B (Pharmacia). The chromatography buffers were identical to the lysis buffer but contained no lysozyme, deoxyribonuclease I, MgCl2 or protease inhibitor and the NaCl concentration of the buffer was adjusted according to the requirements for charging the protein onto the column. Each column was eluted with a NaCl gradient which varied in length from 5-50 column volumes depending on the column type. After the final chromatography step, the resulting purity of the enzyme is >90% based on SDS-PAGE analysis. The enzyme was aliquoted and stored at −80° C.
# Standard HCV NS5B RdRp enzyme assay. HCV RdRp genotype 1b assays were run in a final volume of 60 μl in 96 well plates (Corning 3600). The assay buffer is composed of 20 mM Hepes, pH 7.5, 2.5 mM KCl, 2.5 mM MgCl2, 1 mM DTT, 1.6 U RNAse inhibitor (Promega N2515), 0.01 mg/ml BSA (Sigma B6917), and 2% glycerol. All compounds were serially diluted (3-fold) in DMSO and diluted further in water such that the final concentration of DMSO in the assay was 2%. HCV RdRp genotype 1b enzyme was used at a final concentration of 28 nM. A polyA template was used at 6 nM, and a biotinylated oligo-dT 12 primer was used at 180 nM final concentration. Template was obtained commercially (Amersham 27-4110). Biotinylated primer was prepared by Sigma Genosys. 3H-UTP was used at 0.6 μCi (0.29 μM total UTP). Reactions were initiated by the addition of enzyme, incubated at 30° C. for 60 min, and stopped by adding 25 μl of 50 mM EDTA containing SPA beads (4 μg/μl, Amersham RPNQ 0007). Plates were read on a Packard Top Count NXT after >1 hr incubation at room temperature.
# Modified HCV NS5B RdRp enzyme assay. A modified enzyme assay was performed essentially as described for the standard enzyme assay except for the following: The biotinylated oligo dT12 primer was precaptured on streptavidin-coated SPA beads by mixing primer and beads in assay buffer and incubating at room temperature for one hour. Unbound primer was removed after centrifugation. The primer-bound beads were resuspended in 20 mM Hepes buffer, pH 7.5 and used in the assay at final concentrations of 20 nM primer and 0.67 μg/μl beads. Order of addition in the assay: enzyme (1.75 nM) was added to diluted compound followed by the addition of a mixture of template (0.36 nM), 3H-UTP (0.6 μCi, 0.29 μM), and primer-bound beads, to initiate the reaction; concentrations given are final. Reactions were allowed to proceed for 4 hours at 30° C.
# IC50 values for compounds were determined using seven different [I]. […]
# [2] = tested on: HCV replicon cells; assay: HCV replicon FRET assay; type: cell-based; settings: HCV replicon cells, determined using the FRET assay, read-out: EC50
# Experimental: FRET Assay Preparation. The HCV FRET screening assay was performed in 96-well cell culture plates. The FRET peptide (Anaspec, Inc.) (Taliani et al., Anal. Biochem. 1996, 240, 60-67) contains a fluorescence donor, EDANS, near one end of the peptide and an acceptor, DABCYL, near the other end. The fluorescence of the peptide is quenched by […] resonance energy transfer (RET) between the donor and the acceptor, but as the NS3 protease cleaves the peptide the products are released from RET quenching and the fluorescence of the donor becomes apparent. The assay reagent was made as follows: 5× cell Luciferase cell culture lysis reagent from Promega (#E153A) diluted to 1× with dH2O, NaCl added to 150 mM final, the FRET peptide diluted to 20 μM final from a 2 mM stock.
# To prepare plates, HCV replicon cells, with or without a Renilla luciferase reporter gene, were trypsinized and plated in a 96-well plate with titrated test compounds added in columns 3 through 12; columns 1 and 2 contained a control compound (HCV control inhibitor), and the bottom row contained cells with DMSO only. The plates were then placed in a CO2 incubator at 37° C.
# Assays. Subsequent to addition of the test compounds described above (FRET Assay Preparation), at various times the plate was removed and Alamar blue solution (Trek Diagnostics, #00-100) was added to measure cellular toxicity. After reading in a Cytoflour 4000 instrument (PE Biosystems), plates were rinsed with PBS and then used for FRET assay by the addition of 30 ul of the FRET peptide assay reagent described above (FRET Assay Preparation) per well. The plate was then placed into the Cytoflour 4000 instrument which had been set to 340 excite/490 emission, automatic mode for up to 20 cycles and the plate read in a kinetic mode. Typically, the signal to noise using an endpoint analysis after the reads was at least three-fold. Alternatively, after Alamar blue reading, plates were rinsed with PBS, then used for luciferase assay using the Promega Dual-Glo Luciferase Assay System or the Promega EnduRen Live Cell Substrate assay.
# Compound analysis was performed by quantification of the relative HCV replicon inhibition and the relative cytotoxicity values. To calculate cytoxicity values, the average Alamar Blue fluorescence signals from the control wells were set as 100% non-toxic. The individual signals in each of the compound test wells were then divided by the average control signal and multiplied by 100% to determine […]. To calculate the HCV replicon inhibition values, an average background value was obtained from the two wells containing the highest amount of HCV control inhibitor at the end of the assay period. These numbers were similar to those obtained from naïve Huh-7 cells. The background numbers were then subtracted from the average signal obtained from the control wells and this number was used as 100% activity. The individual signals in each of the compound test wells were then divided by the averaged control values after background subtraction and multiplied by 100% to determine percent activity. EC50 values were calculated as the concentration which caused a 50% reduction in FRET or luciferase activity. The two numbers generated for the compound plate, percent cytoxicity and percent activity, were used to determine compounds of interest for further analysis.
# T1 sequence (Q9WMX2 2420-2992): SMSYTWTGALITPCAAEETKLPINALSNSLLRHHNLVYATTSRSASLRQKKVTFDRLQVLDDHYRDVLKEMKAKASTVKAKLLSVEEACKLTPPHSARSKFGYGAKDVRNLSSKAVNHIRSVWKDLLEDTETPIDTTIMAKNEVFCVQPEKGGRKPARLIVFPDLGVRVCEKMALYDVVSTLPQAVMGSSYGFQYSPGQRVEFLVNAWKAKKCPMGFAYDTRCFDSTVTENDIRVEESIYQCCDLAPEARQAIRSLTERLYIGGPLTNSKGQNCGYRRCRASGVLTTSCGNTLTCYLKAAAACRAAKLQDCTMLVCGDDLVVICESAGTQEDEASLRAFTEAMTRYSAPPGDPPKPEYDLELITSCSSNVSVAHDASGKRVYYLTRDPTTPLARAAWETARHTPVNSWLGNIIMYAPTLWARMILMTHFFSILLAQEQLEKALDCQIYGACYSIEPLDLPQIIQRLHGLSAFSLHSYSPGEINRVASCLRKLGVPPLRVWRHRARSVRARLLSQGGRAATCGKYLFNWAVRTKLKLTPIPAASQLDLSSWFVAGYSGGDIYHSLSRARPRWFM
smiles,measurement,setting,value
COc1ccc2c(c1)C1CC1(NC(=O)C(=O)N1CCCC1)Cn1c-2c(C2CCCCC2)c2ccc(C(=O)NS(=O)(=O)N(C)C)cc21 (centres unmarked) [drawing 32],IC50,[1],1 to 500 nM
same,EC50,[2]; Hepatitis C virus,1 to 500 nM
COc1ccc2c(c1)[C@@H]1C[C@]1(NC(=O)C(=O)N1C[C@@H](C)O[C@@H](C)C1)Cn1c-2c(C2CCCCC2)c2ccc(C(=O)NS(=O)(=O)N(C)C)cc21 [drawing 34],IC50,[1],1 to 500 nM
same,EC50,[2]; Hepatitis C virus,1 to 500 nM
COc1ccc2c(c1)[C@@H]1C[C@]1(NC(=O)C(=O)N(C)C)Cn1c-2c(C2CCCCC2)c2ccc(C(=O)NS(=O)(=O)N(C)C)cc21 [drawing 35],IC50,[1],1 to 500 nM
same,EC50,[2]; Hepatitis C virus,1 to 500 nM
COc1ccc2c(c1)C1CC1(NC(=O)C(=O)N1CCCC1)Cn1c-2c(C2CCCCC2)c2ccc(C(=O)NS(=O)(=O)N(C)C)cc21 (centres unmarked) [drawing 39],IC50,[1],1 to 500 nM
same,EC50,[2],1 to 500 nM
COc1ccc2c(c1)[C@@H]1C[C@]1(NC(=O)C(=O)N(C)C)Cn1c-2c(C2CCCCC2)c2ccc(C(=O)NS(=O)(=O)N(C)C)cc21 [drawing 40],IC50,[1],1 to 500 nM
same,EC50,[2]; Hepatitis C virus,1 to 500 nM
COc1ccc2c(c1)[C@H]1C[C@@]1(NC(=O)C(=O)N(C)C)Cn1c-2c(C2CCCCC2)c2ccc(C(=O)NS(=O)(=O)N(C)C)cc21 [drawing 42],IC50,[1],1 to 500 nM
same,EC50,[2]; Hepatitis C virus,1 to 500 nM
COc1ccc2c(c1)[C@@H]1C[C@]1(NC(=O)C(=O)N1C[C@@H](C)O[C@@H](C)C1)Cn1c-2c(C2CCCCC2)c2ccc(C(=O)NS(=O)(=O)N(C)C)cc21 [drawing 43],IC50,[1],1 to 500 nM
same,EC50,[2]; Hepatitis C virus,1 to 500 nM
